Key:
Na+/K+-ATPase = Na+/K+-ATPase inhibition; format: biochemical; conditions: read-out: IC50 against Na+/K+-ATPase
[1] = Compound A loading onto CalliSpheres microspheres (residual concentration by HPLC); format: physicochemical; conditions: for Concentration of Residual: 1 g microspheres 100-300 μm, 2 mg in 4 ml NaOAc/HOAc buffer 100 mM pH5.0; for Amount of Compound Loaded: onto 1 g microspheres
Protocol: Microspheres (1 g, 100-300 μm, CalliSpheres® CallisynBiomedical, Inc.) were immersed into Compound A solution (2 mg in 4 ml of NaOAc/HOAc buffer (100 mM, pH5.0)) using a 10 mL disposable syringe. Residual compound concentration remaining in the depleted loading solution over time was determined by HPLC method.
(§1) HPLC was performed using the following instrument and/or conditions: […]

[2] = Elution of Compound A from loaded microspheres using the T-Apparatus; format: physicochemical; conditions: 50 mL PBS pH 7.4, 25° C.
Protocol: The microspheres loaded with Compound A were eluted into 50 mL of phosphate buffer solution (PBS, pH 7.4) at 25° C. using a T-Apparatus (Lewis A L, Gonzalez M V, Lloyd A W, et al. DC bead: in vitro characterization of a drug-delivery device for transarterial chemoembolization. J Vasc Interv Radiol, 2006, 17: 335-42). The concentration of Compound A was determined using HPLC method.
as §1

For `C[C@]12CC[C@H](OC(=O)N3CCNCC3)C[C@H]1CC[C@@H]1[C@@H]2CC[C@]2(C)[C@@H](c3ccc(=O)oc3)CC[C@]12O` [Compound A, (3S,5R,8R,9S,10S,13R,14S,17R)-14-hydroxy-10,13-dimethyl-17-(2-oxo-2H-pyran-5-yl)hexadecahydro-1H-cyclopenta[α]phenanthren-3-yl piperazine-1-carboxylate], the IC50 (Na+/K+-ATPase) was roughly 20 nM, the “Concentration of Residual” value ([1]; time 0 h) was 458000 ng/mL and the “Amount of Compound Loaded” value ([1]; time 0 h) was 0 mg. For the same compound, the “Concentration of Residual” value ([1]; time 0.25 h) was 91000 ng/mL, the “Amount of Compound Loaded” value ([1]; time 0.25 h) was 1.47 mg and the “Concentration of Residual” value ([1]; time 0.5 h) was 81000 ng/mL. The “Amount of Compound Loaded” value ([1]; time 0.5 h) was 1.51 mg, the “Concentration of Residual” value ([1]; time 0.75 h) was 83000 ng/mL and the “Amount of Compound Loaded” value ([1]; time 0.75 h) was 1.50 mg. For the same compound, the “Concentration of Residual” value ([1]; time 1 h) was 60000 ng/mL, the “Amount of Compound Loaded” value ([1]; time 1 h) was 1.59 mg and the “Amount of Compound Eluted” value ([2]; time 0.083 h) was 0.63 mg. The “Concentration of Compound Eluted” value ([2]; time 0.083 h) was 13000 ng/mL, the “Amount of Compound Eluted” value ([2]; time 0.5 h) was 0.67 mg and the “Concentration of Compound Eluted” value ([2]; time 0.5 h) was 14000 ng/mL. For the same compound, the “Amount of Compound Eluted” value ([2]; time 0.75 h) was 0.70 mg, the “Concentration of Compound Eluted” value ([2]; time 0.75 h) was 14000 ng/mL and the “Amount of Compound Eluted” value ([2]; time 1 h) was 0.70 mg. For the same compound, the “Concentration of Compound Eluted” value ([2]; time 1 h) was 14000 ng/mL, the “Amount of Compound Eluted” value ([2]; time 2 h) was 0.76 mg and the “Concentration of Compound Eluted” value ([2]; time 2 h) was 15000 ng/mL. The “Amount of Compound Eluted” value ([2]; time 4 h) was 0.94 mg, the “Concentration of Compound Eluted” value ([2]; time 4 h) was 19000 ng/mL and the “Amount of Compound Eluted” value ([2]; time 6 h) was 1.10 mg. For the same compound, the “Concentration of Compound Eluted” value ([2]; time 6 h) was 22000 ng/mL, the “Amount of Compound Eluted” value ([2]; time 24 h) was 1.21 mg and the “Concentration of Compound Eluted” value ([2]; time 24 h) was 24000 ng/mL.
